# Tested on: MV-4-11 cells
# Assay: Gene expression microarray analysis (Affymetrix PrimeView) and GSEA
# Format: cell-based, human
# Design: RFU PODN (11730768_x_at) / Fold change /veh PODN (11730768_x_at) / RFU LINC00158 (11744669_a_at) / Fold change /veh LINC00158 (11744669_a_at) / RFU DUSP10 (11751237_a_at) / Fold change /veh DUSP10 (11751237_a_at) / RFU ID3 (11757404_x_at) / Fold change /veh ID3 (11757404_x_at) / RFU PLEKHG5 (11737974_s_at) / Fold change /veh PLEKHG5 (11737974_s_at) / RFU LRRC4B (11730491_at) / Fold change /veh LRRC4B (11730491_at) / RFU GIMAP4 (11747438_a_at) / Fold change /veh GIMAP4 (11747438_a_at) / RFU KRT8 (11758183_x_at) / Fold change /veh KRT8 (11758183_x_at) / RFU CNN1 (11734310_a_at) / Fold change /veh CNN1 (11734310_a_at) / RFU VPS37D (11726825_at) / Fold change /veh VPS37D (11726825_at) / RFU C10orf10 (11716522_x_at) / Fold change /veh C10orf10 (11716522_x_at) / RFU KIR2DL2 /// KIR2DL4 /// KIR2DL5A /// KIR2DL5B /// KIR2DS1 /// KIR2DS2 /// KIR2DS3 /// KIR2DS4 /// KIR3DL3 /// KIR3DL3 /// KIR3DS1 (11738374_at) / Fold change /veh KIR2DL2 /// KIR2DL4 /// KIR2DL5A /// KIR2DL5B /// KIR2DS1 /// KIR2DS2 /// KIR2DS3 /// KIR2DS4 /// KIR3DL3 /// KIR3DL3 /// KIR3DS1 (11738374_at) / RFU C1QL1 (11718748_at) / Fold change /veh C1QL1 (11718748_at) / RFU TMPRSS4 (11747572_a_at) / Fold change /veh TMPRSS4 (11747572_a_at) / RFU HAMP (11756126_x_at) / Fold change /veh HAMP (11756126_x_at) / RFU RNFT2 (11725882_a_at) / Fold change /veh RNFT2 (11725882_a_at) / RFU NR4A2 (11747474_a_at) / Fold change /veh NR4A2 (11747474_a_at) / RFU ABCC12 (11746883_a_at) / Fold change /veh ABCC12 (11746883_a_at) / RFU TMEM136 (11760407_x_at) / Fold change /veh TMEM136 (11760407_x_at) / RFU CLDN22 /// WWC2 (11732394_at) / Fold change /veh CLDN22 /// WWC2 (11732394_at) / RFU HLA-DPB1 (11760878_x_at) / Fold change /veh HLA-DPB1 (11760878_x_at) / RFU SPINT1 (11716480_a_at) / Fold change /veh SPINT1 (11716480_a_at) / RFU GAP43 (11754022_s_at) / Fold change /veh GAP43 (11754022_s_at) / RFU A4GNT (11735810_at) / Fold change /veh A4GNT (11735810_at) / RFU PRB3 (11715151_x_at) / Fold change /veh PRB3 (11715151_x_at) / RFU TUBB4B (11761932_at) / Fold change /veh TUBB4B (11761932_at) / RFU CAPN14 (11732068_a_at) / Fold change /veh CAPN14 (11732068_a_at) / RFU TMCC2 (11721928_a_at) / Fold change /veh TMCC2 (11721928_a_at) / RFU IRGQ (11745062_a_at) / Fold change /veh IRGQ (11745062_a_at) / RFU FAM174B (11720279_a_at) / Fold change /veh FAM174B (11720279_a_at) / RFU TMPRSS4 (11748680_a_at) / Fold change /veh TMPRSS4 (11748680_a_at) / RFU FAM212B (11763350_a_at) / Fold change /veh FAM212B (11763350_a_at) / RFU PLEKHG5 (11743358_a_at) / Fold change /veh PLEKHG5 (11743358_a_at) / RFU ZSCAN30 (11745921_a_at) / Fold change /veh ZSCAN30 (11745921_a_at) / RFU CMKLR1 (11741424_a_at) / Fold change /veh CMKLR1 (11741424_a_at) / RFU LOC101060620 /// MAPK8IP1 (11723275_at) / Fold change /veh LOC101060620 /// MAPK8IP1 (11723275_at) / RFU SPTSSB (11747773_x_at) / Fold change /veh SPTSSB (11747773_x_at) / RFU PRSS12 (11739890_at) / Fold change /veh PRSS12 (11739890_at) / RFU BIN1 (11741810_x_at) / Fold change /veh BIN1 (11741810_x_at) / RFU WNT11 (11732464_a_at) / Fold change /veh WNT11 (11732464_a_at) / RFU C10orf10 (11716521_a_at) / Fold change /veh C10orf10 (11716521_a_at) / RFU C5orf56 (11738089_at) / Fold change /veh C5orf56 (11738089_at) / RFU CYB561 (11721691_x_at) / Fold change /veh CYB561 (11721691_x_at) / RFU ANKRD19P (11752326_a_at) / Fold change /veh ANKRD19P (11752326_a_at) / RFU OR2T12 /// OR2T33 /// OR2T8 (11738714_s_at) / Fold change /veh OR2T12 /// OR2T33 /// OR2T8 (11738714_s_at) / RFU VCAN (11748164_a_at) / Fold change /veh VCAN (11748164_a_at) / RFU JSRP1 (11732532_at) / Fold change /veh JSRP1 (11732532_at) / RFU KRTAP10-11 (11738290_x_at) / Fold change /veh KRTAP10-11 (11738290_x_at) / RFU MYO3A (11730013_a_at) / Fold change /veh MYO3A (11730013_a_at) / RFU EBF3 (11725865_a_at) / Fold change /veh EBF3 (11725865_a_at) / RFU CAMK2N1 (11719241_x_at) / Fold change /veh CAMK2N1 (11719241_x_at) / RFU C5orf56 (11738088_a_at) / Fold change /veh C5orf56 (11738088_a_at) / RFU OLFML3 (11715873_a_at) / Fold change /veh OLFML3 (11715873_a_at) / RFU LOC100653217 /// NTM (11731650_a_at) / Fold change /veh LOC100653217 /// NTM (11731650_a_at) / RFU MAPK11 (11762145_a_at) / Fold change /veh MAPK11 (11762145_a_at) / RFU FIZ1 (11724087_x_at) / Fold change /veh FIZ1 (11724087_x_at) / RFU OASL (11726364_x_at) / Fold change /veh OASL (11726364_x_at) / RFU SOX15 (11748057_x_at) / Fold change /veh SOX15 (11748057_x_at) / RFU CD79A (11719716_a_at) / Fold change /veh CD79A (11719716_a_at) / RFU HIST1H1D (11736915_at) / Fold change /veh HIST1H1D (11736915_at) / RFU CASKIN2 (11723855_a_at) / Fold change /veh CASKIN2 (11723855_a_at) / RFU LOC730098 (11760151_x_at) / Fold change /veh LOC730098 (11760151_x_at) / RFU OR4N2 (11742367_at) / Fold change /veh OR4N2 (11742367_at) / RFU PRRT2 (11749266_a_at) / Fold change /veh PRRT2 (11749266_a_at) / RFU SNX32 (11753110_a_at) / Fold change /veh SNX32 (11753110_a_at) / RFU CDHR5 (11726645_a_at) / Fold change /veh CDHR5 (11726645_a_at) / RFU RCAN1 (11760418_a_at) / Fold change /veh RCAN1 (11760418_a_at) / RFU FAM167A (11723789_a_at) / Fold change /veh FAM167A (11723789_a_at) / RFU FAM26E (11764081_at) / Fold change /veh FAM26E (11764081_at) / RFU ISYNA1 (11749810_s_at) / Fold change /veh ISYNA1 (11749810_s_at) / RFU ACY1 (11761880_at) / Fold change /veh ACY1 (11761880_at) / RFU 11764098_at / Fold change /veh 11764098_at / RFU SAMD14 (11745864_x_at) / Fold change /veh SAMD14 (11745864_x_at) / RFU NPB (11741838_a_at) / Fold change /veh NPB (11741838_a_at) / RFU TMPRSS6 (11731388_a_at) / Fold change /veh TMPRSS6 (11731388_a_at) / RFU KRTAP10-2 (11738614_at) / Fold change /veh KRTAP10-2 (11738614_at) / RFU ARHGAP8 /// PRR5-ARHGAP8 (11727945_x_at) / Fold change /veh ARHGAP8 /// PRR5-ARHGAP8 (11727945_x_at) / RFU KRTAP5-7 /// NADSYN1 (11734609_at) / Fold change /veh KRTAP5-7 /// NADSYN1 (11734609_at) / RFU RASL12 (11751679_a_at) / Fold change /veh RASL12 (11751679_a_at) / RFU CDKN2B (11736163_a_at) / Fold change /veh CDKN2B (11736163_a_at) / RFU PRF1 (11729649_at) / Fold change /veh PRF1 (11729649_at) / RFU, ZNF638 /// ZNF638-IT1 / Fold change vs veh, ZNF638 /// ZNF638-IT1 / RFU, PANK3 / Fold change vs veh, PANK3 / RFU, SH3YL1 / Fold change vs veh, SH3YL1 / RFU, ZEB2 / Fold change vs veh, ZEB2 / RFU, NRIP1 / Fold change vs veh, NRIP1 / RFU, PTTG1IP / Fold change vs veh, PTTG1IP / RFU, CAPN2 / Fold change vs veh, CAPN2 / RFU, MED14 / Fold change vs veh, MED14 / RFU, SNORA58 / Fold change vs veh, SNORA58 / RFU, C1orf63 / Fold change vs veh, C1orf63 / RFU, LRRFIP1 / Fold change vs veh, LRRFIP1 / RFU, NDUFAF7 / Fold change vs veh, NDUFAF7 / RFU, SLC12A2 / Fold change vs veh, SLC12A2 / RFU, IBTK / Fold change vs veh, IBTK / RFU, ESF1 / Fold change vs veh, ESF1 / Fold change vs veh, TMEM50B / RFU, TAOK1 / Fold change vs veh, TAOK1 / RFU, ACBD3 / Fold change vs veh, ACBD3 / RFU, TMA16 / Fold change vs veh, TMA16 / RFU, RWDD3 / Fold change vs veh, RWDD3 / RFU, BCAT1 / Fold change vs veh, BCAT1 / RFU, EDEM3 / Fold change vs veh, EDEM3 / RFU, TMEM33 / Fold change vs veh, TMEM33 / RFU, WDR75 / Fold change vs veh, WDR75 / RFU, AHCTF1 / Fold change vs veh, AHCTF1 / RFU, TFRC / Fold change vs veh, TFRC / RFU, ZDHHC17 / Fold change vs veh, ZDHHC17 / RFU, NOM1 / Fold change vs veh, NOM1 / RFU, ARL8B / Fold change vs veh, ARL8B / RFU, ZBTB11 / Fold change vs veh, ZBTB11 / RFU, TAMM41 / Fold change vs veh, TAMM41 / RFU, KIAA1704 /// LOC100996395 / Fold change vs veh, KIAA1704 /// LOC100996395 / RFU, ING1 / Fold change vs veh, ING1 / RFU, TRMT61B / Fold change vs veh, TRMT61B / RFU, FUBP3 / Fold change vs veh, FUBP3 / RFU, TP53 / Fold change vs veh, TP53 / RFU, TNKS2 / Fold change vs veh, TNKS2 / RFU, ZFP14 / Fold change vs veh, ZFP14 / RFU, ACTR2 / Fold change vs veh, ACTR2 / RFU, PPP3R1 / Fold change vs veh, PPP3R1 / RFU, PIK3R1 / Fold change vs veh, PIK3R1 / RFU, HNRNPA1 / Fold change vs veh, HNRNPA1 / RFU, RNF170 / Fold change vs veh, RNF170 / RFU, ZNF28 / Fold change vs veh, ZNF28 / RFU, RNGTT / Fold change vs veh, RNGTT / RFU, OGT / Fold change vs veh, OGT / RFU, BRD1 / Fold change vs veh, BRD1 / RFU, MARS / Fold change vs veh, MARS / RFU, ZNF655 / Fold change vs veh, ZNF655 / RFU, FAHD1 / Fold change vs veh, FAHD1 / RFU, BDP1 / Fold change vs veh, BDP1 / RFU, LRRCC1 / Fold change vs veh, LRRCC1 / RFU, ARID1A / Fold change vs veh, ARID1A / RFU, ZNF146 / Fold change vs veh, ZNF146 / RFU, ZNF330 / Fold change vs veh, ZNF330 / RFU, GPN3 / Fold change vs veh, GPN3 / RFU, C9orf123 / Fold change vs veh, C9orf123 / RFU, N4BP2L2 / Fold change vs veh, N4BP2L2 / RFU, ARFIP1 / Fold change vs veh, ARFIP1 / RFU, FAM179B / Fold change vs veh, FAM179B / RFU, BCL10 / Fold change vs veh, BCL10 / RFU, UHRF1BP1L / Fold change vs veh, UHRF1BP1L / RFU, BET1 / Fold change vs veh, BET1 / RFU, CNOT2 / Fold change vs veh, CNOT2 / RFU, ZNF268 / Fold change vs veh, ZNF268 / Fold change vs veh, ZNF507 / RFU, DGCR2 / Fold change vs veh, DGCR2 / RFU, WDSUB1 / Fold change vs veh, WDSUB1 / Fold change vs veh, HSP90B1 /// MIR3652 / RFU, ADSS / Fold change vs veh, ADSS / RFU, GK / Fold change vs veh, GK / RFU, ZNF148 / Fold change vs veh, ZNF148 / RFU, TAF9 / Fold change vs veh, TAF9 / RFU, SLC1A5 / Fold change vs veh, SLC1A5 / RFU, SLMO2 / Fold change vs veh, SLMO2 / RFU, ABCC4 / Fold change vs veh, ABCC4 / RFU, LOC101060439 /// RAP1B / Fold change vs veh, LOC101060439 /// RAP1B / RFU, RFX7 / Fold change vs veh, RFX7 / RFU, GTPBP10 / Fold change vs veh, GTPBP10 / RFU, CNEP1R1 / Fold change vs veh, CNEP1R1 / RFU, BIVM-ERCC5 /// ERCC5 / Fold change vs veh, BIVM-ERCC5 /// ERCC5 / RFU, ILF3 / Fold change vs veh, ILF3 / RFU 11762660_at / Fold change /veh 11762660_at / RFU VCAN (11757783_s_at) / Fold change /veh VCAN (11757783_s_at) / RFU DDX43 (11728927_at) / Fold change /veh DDX43 (11728927_at) / RFU KRT8 (11758188_x_at) / Fold change /veh KRT8 (11758188_x_at) / RFU NKD1 (11759106_at) / Fold change /veh NKD1 (11759106_at) / RFU SRD5A1 (11742802_a_at) / Fold change /veh SRD5A1 (11742802_a_at) / RFU TPSAB1 /// TPSB2 (11721975_s_at) / Fold change /veh TPSAB1 /// TPSB2 (11721975_s_at) / RFU GSTM3 (11746129_a_at) / Fold change /veh GSTM3 (11746129_a_at) / RFU IL23R (11737362_x_at) / Fold change /veh IL23R (11737362_x_at) / RFU TMEM51 (11727254_a_at) / Fold change /veh TMEM51 (11727254_a_at) / RFU PIWIL2 (11732686_x_at) / Fold change /veh PIWIL2 (11732686_x_at) / RFU ORM1 (11744905_x_at) / Fold change /veh ORM1 (11744905_x_at) / RFU CCDC152 (11743942_at) / Fold change /veh CCDC152 (11743942_at) / RFU ECM1 (11717891_a_at) / Fold change /veh ECM1 (11717891_a_at) / RFU IL23R (11748794_a_at) / Fold change /veh IL23R (11748794_a_at) / RFU TNFAIP8L3 (11732012_x_at) / Fold change /veh TNFAIP8L3 (11732012_x_at) / RFU MBOAT4 (11741988_at) / Fold change /veh MBOAT4 (11741988_at) / RFU 11764193_at / Fold change /veh 11764193_at / RFU TMEM53 (11763286_at) / Fold change /veh TMEM53 (11763286_at) / RFU MAGEB2 (11727129_at) / Fold change /veh MAGEB2 (11727129_at) / RFU TMEM200A (11744735_a_at) / Fold change /veh TMEM200A (11744735_a_at) / RFU CCDC152 (11751479_a_at) / Fold change /veh CCDC152 (11751479_a_at) / RFU FAM211A (11726209_a_at) / Fold change /veh FAM211A (11726209_a_at) / RFU RGS16 (11746705_a_at) / Fold change /veh RGS16 (11746705_a_at) / RFU VCAN (11755009_s_at) / Fold change /veh VCAN (11755009_s_at) / RFU RHOB (11743442_s_at) / Fold change /veh RHOB (11743442_s_at) / RFU RGS16 (11720943_a_at) / Fold change /veh RGS16 (11720943_a_at) / RFU RGS16 (11720944_at) / Fold change /veh RGS16 (11720944_at) / RFU, VPS4B / Fold change vs veh, VPS4B / RFU, CREB1 / Fold change vs veh, CREB1 / RFU, DNAJC13 / Fold change vs veh, DNAJC13 / RFU, GNAQ / Fold change vs veh, GNAQ / RFU, CDK5R1 / Fold change vs veh, CDK5R1 / RFU, ZRANB3 / Fold change vs veh, ZRANB3 / RFU, CUL4A / Fold change vs veh, CUL4A / RFU, CCNY / Fold change vs veh, CCNY / RFU, UFL1 / Fold change vs veh, UFL1 / RFU, COG3 / Fold change vs veh, COG3 / RFU, DIAPH2 / Fold change vs veh, DIAPH2 / RFU, SKA2 / Fold change vs veh, SKA2 / RFU, AFF3 / Fold change vs veh, AFF3 / RFU, LMF1 / Fold change vs veh, LMF1 / RFU, IPO11 / Fold change vs veh, IPO11 / RFU, DFFB / Fold change vs veh, DFFB / RFU, FOXP1 / Fold change vs veh, FOXP1 / RFU, CARD8 / Fold change vs veh, CARD8 / RFU, STRN3 / Fold change vs veh, STRN3 / RFU, ADK / Fold change vs veh, ADK / RFU, RASSF2 / Fold change vs veh, RASSF2 / RFU, WIPF1 / Fold change vs veh, WIPF1 / RFU, LARP1B / Fold change vs veh, LARP1B / RFU, RASA1 / Fold change vs veh, RASA1 / RFU, RB1 / Fold change vs veh, RB1 / RFU, PPFIA1 / Fold change vs veh, PPFIA1 / RFU, MAT2A / Fold change vs veh, MAT2A / RFU, CCT5 / Fold change vs veh, CCT5 / RFU, WDR92 / Fold change vs veh, WDR92 / RFU, CUX1 / Fold change vs veh, CUX1 / RFU, TTC7A / Fold change vs veh, TTC7A / RFU, TMEM135 / Fold change vs veh, TMEM135 / RFU, DEPTOR / Fold change vs veh, DEPTOR / RFU, CPM / Fold change vs veh, CPM / RFU, DNAJB6 / Fold change vs veh, DNAJB6 / RFU, CACNA2D3 / Fold change vs veh, CACNA2D3 / RFU, DTX4 / Fold change vs veh, DTX4 / RFU, TFCP2 / Fold change vs veh, TFCP2 / RFU, GMCL1 /// GMCL1P1 / Fold change vs veh, GMCL1 /// GMCL1P1 / RFU, AEBP2 / Fold change vs veh, AEBP2 / RFU, SNHG1 /// SNORD22 /// SNORD25 /// SNORD26 /// SNORD27 /// SNORD28 /// SNORD29 /// SNORD31 / Fold change vs veh, SNHG1 /// SNORD22 /// SNORD25 /// SNORD26 /// SNORD27 /// SNORD28 /// SNORD29 /// SNORD31 / Fold change (Aza/veh), C12orf56 (ProbeSet 11735607_a_at) / Fold change (ACY-1035/veh), C12orf56 (ProbeSet 11735607_a_at) / Fold change (Aza/veh), FGFR1OP (ProbeSet 11751329_s_at) / Fold change (ACY-1035/veh), FGFR1OP (ProbeSet 11751329_s_at) / Fold change (Aza/veh), VPS36 (ProbeSet 11739960_a_at) / Fold change (ACY-1035/veh), VPS36 (ProbeSet 11739960_a_at) / RFU SYPL1 (11715823_x_at) / Fold change /veh SYPL1 (11715823_x_at) / RFU IGFBP7 (11715501_s_at) / Fold change /veh IGFBP7 (11715501_s_at) / RFU REEP3 (11722064_at) / Fold change /veh REEP3 (11722064_at) / RFU IGLL1 (11728026_x_at) / Fold change /veh IGLL1 (11728026_x_at): dose or concentration left out as unconfirmed
# Conditions: ProbeSet 11724877_a_at; LIST D
smiles,measurement,value
Nc1ncn([C@@H]2O[C@H](CO)[C@@H](O)[C@H]2O)c(=O)n1 [azacitidine],"RFU, AEBP2",23.96 RFU
